Measured values taken from PubChem BioAssay (NCI).
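Exposure lasted 48 hours, with cells grown in 96-well plates and compounds tested at five concentrations. TGI: concentration producing complete growth inhibition.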

Experiments:
Assay in all cases: NCI anticancer screen, dose series, 48 h
[1] = test system: MCF7 breast
[2] = test system: BT-549 breast
[3] = test system: UACC-62 melanoma
[4] = test system: PC-3 prostate
[5] = test system: SN12C renal
[6] = test system: UACC-257 melanoma
[7] = test system: TK-10 renal
[8] = test system: OVCAR-5 ovarian
[9] = test system: SF-268 CNS
[10] = test system: HCT-15 colon
[11] = test system: SF-539 CNS
[12] = test system: EKVX NSCLC
[13] = test system: MDA-MB-231 breast
[14] = test system: 786-0 renal
[15] = test system: ACHN renal
[16] = test system: SW-620 colon
[17] = test system: IGROV1 ovarian
[18] = test system: HOP-92 NSCLC
[19] = test system: HCT-116 colon
[20] = test system: NCI-H23 lung
[21] = test system: T-47D breast
[22] = test system: UO-31 renal
[23] = test system: SNB-19 CNS
[24] = test system: A549 NSCLC
[25] = test system: OVCAR-3 ovarian
[26] = test system: MALME-3M melanoma
[27] = test system: COLO 205 colon
[28] = test system: RPMI-8226 leukemia
[29] = test system: LOX IMVI melanoma
[30] = test system: K-562 leukemia
[31] = test system: NCI-H522 lung
[32] = test system: SK-OV-3 ovarian
[33] = test system: HCC-2998 colon
[34] = test system: U251 CNS
[35] = test system: DU-145 prostate
[36] = test system: SK-MEL-28 melanoma
[37] = test system: CCRF-CEM leukemia
[38] = test system: SNB-75 CNS
[39] = test system: SK-MEL-5 melanoma
[40] = test system: CAKI-1 renal
[41] = test system: A498 renal
[42] = test system: NCI/ADR-RES ovarian
[43] = test system: MOLT-4 leukemia
[44] = test system: HOP-62 NSCLC
[45] = test system: M14 melanoma
[46] = test system: MDA-MB-435
[47] = test system: MDA-N
[48] = test system: NCI-H460 lung
[49] = test system: HT29 colon
[50] = test system: SF-295 CNS
[51] = test system: OVCAR-8 ovarian
[52] = test system: NCI-H226 lung
[53] = test system: HL-60(TB) leukemia
[54] = test system: HS 578T breast
[55] = test system: KM12 colon
[56] = test system: SR leukemia
[57] = test system: SK-MEL-2 melanoma
[58] = test system: RXF 393 renal
[59] = test system: OVCAR-4 ovarian

**Q.** Which TGI [1] does the source give for `C=CC1ON(Cc2ccccc2)CCc2cc(OC)c(OC)cc21` (stereo not drawn) here?
**A.** > 100 µM

**Q.** And the TGI [2]?
**A.** > 100 µM

**Q.** And the TGI [3]?
**A.** > 100 µM

**Q.** And the TGI [4]?
**A.** > 100 µM

**Q.** And the TGI [5]?
**A.** > 100 µM

**Q.** And the TGI [6]?
**A.** > 100 µM

**Q.** And the TGI [7]?
**A.** > 100 µM

**Q.** And the TGI [8]?
**A.** > 100 µM

**Q.** And the TGI [9]?
**A.** > 100 µM

**Q.** And the TGI [10]?
**A.** > 100 µM

**Q.** What about the TGI [11] of the same compound?
**A.** > 100 µM

**Q.** And the TGI [12]?
**A.** > 100 µM

**Q.** And the TGI [13]?
**A.** > 100 µM

**Q.** What about the TGI [14] of the same compound?
**A.** > 100 µM

**Q.** What about the TGI [15] of the same compound?
**A.** > 100 µM

**Q.** What about the TGI [16] of the same compound?
**A.** > 100 µM

**Q.** What about the TGI [17] of the same compound?
**A.** > 100 µM

**Q.** And the TGI [18]?
**A.** > 100 µM

**Q.** What about the TGI [19] of the same compound?
**A.** > 100 µM

**Q.** What about the TGI [20] of the same compound?
**A.** > 100 µM

**Q.** What about the TGI [21] of the same compound?
**A.** > 100 µM

**Q.** What about the TGI [22] of the same compound?
**A.** > 100 µM

**Q.** What about the TGI [23] of the same compound?
**A.** > 100 µM

**Q.** What about the TGI [24] of the same compound?
**A.** > 100 µM

**Q.** What about the TGI [25] of the same compound?
**A.** > 100 µM

**Q.** What about the TGI [26] of the same compound?
**A.** > 100 µM

**Q.** And the TGI [27]?
**A.** > 100 µM

**Q.** And the TGI [28]?
**A.** > 100 µM

**Q.** And the TGI [29]?
**A.** > 100 µM

**Q.** And the TGI [30]?
**A.** > 100 µM

**Q.** What about the TGI [31] of the same compound?
**A.** > 100 µM

**Q.** What about the TGI [32] of the same compound?
**A.** > 100 µM

**Q.** What about the TGI [33] of the same compound?
**A.** > 100 µM

**Q.** What about the TGI [34] of the same compound?
**A.** > 100 µM

**Q.** And the TGI [35]?
**A.** > 100 µM

**Q.** What about the TGI [36] of the same compound?
**A.** > 100 µM

**Q.** And the TGI [37]?
**A.** > 100 µM

**Q.** And the TGI [38]?
**A.** > 100 µM

**Q.** What about the TGI [39] of the same compound?
**A.** 31.6 µM

**Q.** What about the TGI [40] of the same compound?
**A.** > 100 µM

**Q.** What about the TGI [41] of the same compound?
**A.** 67.8 µM

**Q.** What about the TGI [42] of the same compound?
**A.** > 100 µM

**Q.** What about the TGI [43] of the same compound?
**A.** > 100 µM

**Q.** And the TGI [44]?
**A.** > 100 µM

**Q.** And the TGI [45]?
**A.** > 100 µM

**Q.** What about the TGI [46] of the same compound?
**A.** 84.9 µM

**Q.** And the TGI [47]?
**A.** 89.5 µM

**Q.** What about the TGI [48] of the same compound?
**A.** > 100 µM

**Q.** And the TGI [49]?
**A.** > 100 µM

**Q.** And the TGI [50]?
**A.** > 100 µM

**Q.** What about the TGI [51] of the same compound?
**A.** > 100 µM

**Q.** What about the TGI [52] of the same compound?
**A.** > 100 µM

**Q.** And the TGI [53]?
**A.** 94.4 µM

**Q.** And the TGI [54]?
**A.** > 100 µM

**Q.** And the TGI [55]?
**A.** > 100 µM

**Q.** And the TGI [56]?
**A.** > 100 µM

**Q.** What does the source list for `CCOC(=O)c1sc2nc(SC)nc3c2c1NC(=O)CN3c1cccc(F)c1`?
**A.** TGI [1]: > 100 µM; TGI [2]: 21.3 µM; TGI [3]: > 100 µM; TGI [4]: 34.4 µM; TGI [5]: 35.5 µM; TGI [6]: > 100 µM; TGI [7]: 86.8 µM; TGI [8]: > 100 µM; TGI [9]: 28.1 µM; TGI [11]: 15.7 µM; TGI [57]: 67.6 µM; TGI [12]: > 100 µM; TGI [13]: 41.3 µM; TGI [15]: 27.3 µM; TGI [16]: > 100 µM; TGI [17]: > 100 µM; TGI [18]: 55.6 µM; TGI [19]: 53 µM; TGI [20]: > 100 µM; TGI [22]: 35.1 µM; TGI [23]: 47.9 µM; TGI [24]: 28 µM; TGI [25]: 43.9 µM; TGI [26]: > 100 µM; TGI [27]: > 100 µM; TGI [58]: 32 µM; TGI [28]: 46.8 µM; TGI [29]: 38.8 µM; TGI [30]: 93.3 µM; TGI [31]: > 100 µM; TGI [32]: 37.4 µM; TGI [34]: 31.9 µM; TGI [35]: 52.7 µM; TGI [36]: 22.9 µM; TGI [39]: > 100 µM; TGI [40]: > 100 µM; TGI [41]: 43.1 µM; TGI [43]: 67.7 µM; TGI [44]: 28.3 µM; TGI [45]: 50 µM; TGI [59]: 42 µM; TGI [46]: > 100 µM; TGI [47]: > 100 µM; TGI [48]: > 100 µM; TGI [49]: > 100 µM; TGI [50]: 40.2 µM; TGI [51]: 30.6 µM; TGI [52]: 31.7 µM; TGI [53]: 24.4 µM; TGI [54]: 59.7 µM; TGI [55]: > 100 µM; TGI [56]: > 100 µM
